In brackets after ≈: the same amount, converted by molar mass. Like-named read-outs stand apart in the source and are kept apart here.
Experiments:
S. aureus UC ® 9213 = experiment: MIC by agar dilution, S. aureus UC 9213; assay type: cell-based; conditions: Staphylococcus aureus
Excerpt: (§1) The oxazolidinone antibacterial agents of this invention have useful activity against a variety of organisms. The in vitro activity of compounds of this invention can be assessed by standard testing procedures such as the determination of minimum inhibitory concentration (MIC) by agar dilution as described in "Methods for Dilution Antimicrobial Susceptibility Tests for Bacteria That Grow Aerobically" (MFT) published January 1983 by the National Committee for Clinical Laboratory Standards, 771 East Lancaster Avenue, Villanova, Pa. 19084, USA. The activity of selected compounds of this invention against Staphylococcus aureus and Streptococcus pneumoniae are shown in Table 1.

S. pneumoniae UC® 9912 = experiment: MIC by agar dilution, S. pneumoniae UC 9912; assay type: cell-based; conditions: Streptococcus pneumoniae
Excerpt: as §1

[1] = UC9213, S. aureus UC 9213, in vitro, agar dilution, read-out: Minimum Inhibitory Concentration
[2] = UC9912, S. pneumoniae UC 9912, in vitro, agar dilution, read-out: Minimum Inhibitory Concentration

MIC (S. aureus UC ® 9213; [1]) [µg/mL]	MIC (S. pneumoniae UC® 9912; [2]) [µg/mL]	Structure (SMILES)	MIC (S. aureus UC ® 9213; UC9213, read-out: Minimum Inhibitory Concentration) [µg/mL]	MIC (S. pneumoniae UC® 9912; UC9912, read-out: Minimum Inhibitory Concentration) [µg/mL]
4 (≈ 8.06 µM)	2 (≈ 4.03 µM)	CC(=O)NC[C@H]1CN(c2ccc(N3C[C@H]4CN(C(=O)OCc5ccccc5)C[C@H]4C3)c(F)c2)C(=O)O1 [Example 1, (S)-N-[[3-[4-[cis-3-(carbobenzyloxy)-3,7-diazabicyclo[3.3.0]octan-7-yl]-3-fluorophenyl]-2-oxo-5-oxazolidinyl]methyl]acetamide]	–	–
–	–	CN[C@H](CC(C)C)C(=O)N[C@H]1C(=O)N[C@@H](CC(N)=O)C(=O)N[C@H]2C(=O)N[C@H]3C(=O)N[C@H](C(=O)N[C@H](C(=O)O)c4cc(O)cc(O)c4-c4cc3ccc4O)[C@H](O)c3ccc(c(Cl)c3)Oc3cc2cc(c3O[C@@H]2O[C@H](CO)[C@@H](O)[C@H](O)[C@H]2O[C@H]2C[C@](C)(N)[C@H](O)[C@H](C)O2)Oc2ccc(cc2Cl)[C@H]1O [vancomycin, reference compound]	1 (≈ 0.69 µM)	0.5 (≈ 0.345 µM)
8 (≈ 15.7 µM)	1 (≈ 1.96 µM)	CC(=O)NC[C@H]1CN(c2ccc(N3C[C@H]4CN(C(=O)COCc5ccccc5)C[C@H]4C3)c(F)c2)C(=O)O1 [Example 2, (S)-N-[[3-[3-fluoro4-[cis-3-(benzyloxyacetyl)-3,7-diazabicyclo[3.3.0]octan-7-yl]phenyl]-2-oxo-5-oxazolidinyl]methyl]acetamide]	–	–
4 (≈ 9.51 µM)	< 0.5	CC(=O)NC[C@H]1CN(c2ccc(N3C[C@H]4CN(C(=O)CO)C[C@H]4C3)c(F)c2)C(=O)O1 [Example 3, (S)-N-[[3-[3-fluoro4-[cis-3-(hydroxyacetyl)-3,7-diazabicyclo[3.3.0]octan-7-yl]phenyl]-2-oxo-5-oxazolidinyl]methyl]acetamide]	–	–

From US6090820A, “Spirocyclic and bicyclic diazinyl and carbazinyl oxazolidinones” (Pharmacia & Upjohn Company, priority 1997, dated 2000)
